Experimental data: patent US20200093103A1, “BREEDING WATER FOR ANGUILLIFORMES AND METHOD FOR REARING ANGUILLIFORMES” (SHIN NIPPON BIOMEDICAL LABORATORIES, LTD., priority 2016, published 2020)

System: Anguilla japonica leptocephali
Test: Induction of Anguilla japonica metamorphosis by T4 treatment in 23° C. breeding water
Format: in vivo
Set-up: key: Y: Metamorphosis completed (seed production completed).; Nd: Dead.; Nf: Food intake unidentified.; Ng: Not metamorphosed into glass eels
Description: Stage 1: Starting phase of metamorphosis. The rostral end is rounded, and intestinal degeneration starts.
Stage 2: Peak phase of metamorphosis. Intestinal degeneration becomes pronounced. In the second half, the anus reaches to near the last vertical blood vessel (VBV last).
Stage 3: Late phase of metamorphosis. The preanal length (PAL) becomes equal to or shorter than the last vertical blood vessel length (VBV last Length) (PAL VBV last Length). The body height is apparently low.
Stage 4: Pre-glass eel stage. Almost the eel form, but the body height still remains. Melanophores on the body surface or endogenous melanophores are not yet seen.
Elver stage: Juvenile stage. Food intake can be identified.
A thyroid hormone (e.g., thyroxine (T4)) is adjusted to 50 to 100 mM in a 1- to 2-mL volume messflask. As a solvent, known solvents (water, alcohol) can be used. Ethanol is preferably used as the solvent.
For example, using ethanol as a solvent, T4 adjusted to 50 mM is diluted 500-fold, 5,000-fold, and 50,000-fold, respectively, and adjusted to […], 1 μM, and 100 nM. A feed can be prepared in this manner.
Artificial seawater is added to a breeding vessel, and 1/1000 of the […] T4 is added to prepare […] T4 breeding water.
Half of the breeding water is replaced every two days with breeding water of the same concentration. In the case where the concentration is changed, for example, in the case of changing from 10 nM to 2 nM, 80% to the breeding water is removed, and unadjusted artificial seawater is newly added to make 1 L.
Leptocephali visually considered to have reached a total length of 40 mm (or may be 30 mm to 50 mm, may be 35 mm to 45 mm, or may also be 35 mm or more, 40 mm or more, or 45 mm or more) are selected, anesthetized with 2-phenoxyethanol, and then photographed, and the total length of each larva is measured using an image analyzing device.
The larvae are placed in 10 nM T4 breeding water and then placed in an incubator set at 23° C., and breeding is started. In first one week, observation is performed every two days, and half of the 10 nM T4 breeding water is replaced each time. The average amount of thyroid hormone in the breeding water in stage 1 is 1 nM to 100 nM, for example, and may also be 3 nM to 30 nM, or 5 nM to 20 nM.
For larvae visually judged to have reached the second half of stage 2, the concentration of the breeding water is changed. The breeding water is diluted 5-fold or 10-fold and adjusted to 2 nM or 1 nM T4, and breeding is continued. The average amount of thyroid hormone in the breeding water in stage 2 may be, as compared with the breeding water of stage 1, diluted 2-fold to 20-fold, diluted 3 to 15-fold, or diluted 5 to 10-fold as described above. The average amount of thyroid hormone in the breeding water in stage 2 is 0.1 nM to 20 nM, for example, and may also be 0.5 nM to 10 nM, 1 nM to 5 nM, or 1 nM to 2 nM.
For larvae visually judged to have reached stage 3, the breeding water is quickly changed 0.2 nM T4 breeding water, which is a 5-fold dilution of 1 nM T4 breeding water, and further changed to 0.1 nM T4 breeding water on the following day. […] Also, in larvae whose anus position has not reached the last vertical hemal spine, when they are judged to be on the brink of stage 3, the concentration is changed as above. The average amount of thyroid hormone in the breeding water in stage 3 may be, as compared with the breeding water of stage 2, diluted 2-fold to 50-fold, diluted 3 to 15-fold, diluted 4 to 6-fold, or diluted 5-fold as described above. The average amount of thyroid hormone in the breeding water in stage 3 is 0.01 nM to 2 nM, for example, and may also be 0.05 nM to 1 nM, 0.1 nM to 0.5 nM, or 0.1 nM to 0.2 nM. […] That is, the concentration may be changed such that the thyroid hormone becomes undetectable in the breeding water in the course of stage 3.
In stage 3, breeding is continuously performed in the 0.1 nM T4 breeding water. […]

N[C@@H](Cc1cc(I)c(Oc2cc(I)c(O)c(I)c2)c(I)c1)C(=O)O [T4, thyroxine]
Elver (individual Exp 6-2, 129 days old, total length 38.1 mm at start of T4 treatment): Y
Elver (individual Exp 6-3, 129 days old, total length 37.4 mm at start of T4 treatment): Y
Elver (individual Exp 6-4, 129 days old, total length 36.6 mm at start of T4 treatment): Y
Elver (individual Exp 6-5, 129 days old, total length 36.4 mm at start of T4 treatment): Ng
Elver (individual Exp 6-6, 129 days old, total length 34.6 mm at start of T4 treatment): Nf
Elver (individual Exp. 6-1, 129 days old, total length 40.6 mm at start of T4 treatment): Y
